Results on three molecules are retold here after patent US20150320709A1, “METHODS AND COMPOSITIONS FOR FACILITATING WEIGHT LOSS BY ADMINISTRATION OF THYROID HORMONES” (priority 2011, published 2015).

SMILES strings stand for the structures.

Assay [1] in a line: Low thyroid symptoms / clinical status of weight loss program patients on thyroid hormone treatment. The assay is classed as in vivo, human.
Assay [2] in a line: Circulating thyroid hormone labs (FT3, FT4, rT3, TSH) in weight loss program patients on thyroid hormone treatment. The assay is classed as in vivo, human. An excerpt: FIG. 1 depicts hormonal responses to a hypocaloric state with subsequent treatment. Note: Time frames and shapes of response curves are approximated. Levels of all four hormones are normal before the diet (Time A). At time between time points B and D, TSH is dropping slightly to signal the thyroid gland to make less thyroid hormone. This drop is the mechanism to decrease metabolism in the hypocaloric state. At point C, free T3 begins to drop as rT3 increases. Also at time point C, different observations have been reported for changes in FT4: in our experience, FT4 also drops as indicated on the graph. In the literature, some report no change, whereas others report an increase in FT4. By the time of the blood sampling (time E), in our experience, patients whose FT3 and FT4 have dropped to the low end of normal (with possible above normal rT3 levels) are those experiencing symptoms of low thyroid. They may have any of the following symptoms: feeling cold, cold hands and feet, elevated diastolic blood pressure secondary to vasoconstriction, fatigue, depression, constipation, hair loss, dry skin, insomnia, as well as others. They have often hit a plateau of weight loss even though they have continued to maintain their hypocaloric diet and exercise program. At point F, we begin treatment with thyroid hormone (for example, T4 with T3, T3 alone, T3 with T2 and T4, or T2 alone. Between points F and G, FT3 and rT3 (and FT4 if T4 was administered) are returning to more normal levels, while TSH plummets, often to undetectable levels. At time point H, symptoms of low thyroid are resolved, the patient has no symptoms of hyperthyroidism, and if rT3 had risen and was treated appropriately, rT3 decreased.
The first patient example is a person, 5′2″, weight 268 lbs, body mass index (BMI) 49 (nl 19-24; overweight 25-29; obesity≧30). Baseline blood pressure was 110/74, blood sugar (BS) was 153 mg/dL 10 days after their first visit. Their medical problems at baseline included obesity, type 2 diabetes mellitus (DM2), high blood pressure (HTN), fatigue, depression, and asthma. Their medications included glipizide 10 mg daily, amitriptyline 50 mg daily, metoprolol 50 mg daily, furosemide 40 mg daily, potassium chloride, lisinopril 10 mg daily, Advair Discus 500/50 twice daily (bid), and montelukast 10 mg daily. They were started on our comprehensive program. Five months after starting their weight loss treatment, they developed symptoms of hypothyroidism with constipation and fatigue. They had lost 28 lbs by this time and was having difficulty losing more weight even though they were eating less than they were before their weight loss treatment began. At the start of treatment, their FT4 was 0.9 ng/dL (nl 0.7-1.48). At the time of their low thyroid symptoms, their FT3 was 2.9 pg/mL (nl 1.71-3.71) and their FT4 was 0.91 ng/dL (nl 0.7-1.48). They were then treated with thyroid hormone (desiccated thyroid with a ratio of T4:T3 of about 4:1) at 60 mg daily for 6 days to acclimate, then increased to 120 mg daily. […] After two years on their weight loss treatment, their weight was 231 lbs. […] We tested for rT3 at this point. Their labs on the 150 mg dose of desiccated thyroid were: rT3 394 pg/mL (nl 90-350), FT3 3.94 pg/mL (nl 1.71-3.71), and FT4 1.24 ng/dL (nl 0.7-1.48). The task of bringing down their rT3 was then addressed. Over a period of a few months, their desiccated thyroid hormone was discontinued and instead the patient was given gradually increasing doses of T3 only, starting at 20 mcg daily and gradually increasing the T3 to 60 mcg bid. Five months after starting on T3 with increasing doses, their weight had dropped to 209 lbs. Their BP was 118/66 mmHg with pulse of 74 on lisinopril 10 mg daily, metoprolol 50 mg bid, and furosemide 40 mg daily. Instead of glipizide, they were taking metformin 500 mg bid. […] Their most recent labs on 60 mcg bid of T3 were FT3 3.8 pg/mL (nl 1.71-3.71), FT4 0.64 ng/dL (nl 0.7-1.48) and rT3 137 pg/mL (nl 90-350). Four months prior to this visit their BS was 125 mg/dl. […]

The nature of assay [3]: Low thyroid symptoms / clinical status of weight loss program patients on thyroid hormone treatment. The assay is classed as in vivo, human. The following applies: Patient Example 2; 75 mcg daily, within a few weeks of switch from desiccated thyroid. As to the method: The first patient example is a person, 5′2″, weight 268 lbs, body mass index (BMI) 49 (nl 19-24; overweight 25-29; obesity≧30). Baseline blood pressure was 110/74, blood sugar (BS) was 153 mg/dL 10 days after their first visit. Their medical problems at baseline included obesity, type 2 diabetes mellitus (DM2), high blood pressure (HTN), fatigue, depression, and asthma. Their medications included glipizide 10 mg daily, amitriptyline 50 mg daily, metoprolol 50 mg daily, furosemide 40 mg daily, potassium chloride, lisinopril 10 mg daily, Advair Discus 500/50 twice daily (bid), and montelukast 10 mg daily. They were started on our comprehensive program. Five months after starting their weight loss treatment, they developed symptoms of hypothyroidism with constipation and fatigue. They had lost 28 lbs by this time and was having difficulty losing more weight even though they were eating less than they were before their weight loss treatment began. At the start of treatment, their FT4 was 0.9 ng/dL (nl 0.7-1.48). At the time of their low thyroid symptoms, their FT3 was 2.9 pg/mL (nl 1.71-3.71) and their FT4 was 0.91 ng/dL (nl 0.7-1.48). They were then treated with thyroid hormone (desiccated thyroid with a ratio of T4:T3 of about 4:1) at 60 mg daily for 6 days to acclimate, then increased to 120 mg daily. […] After two years on their weight loss treatment, their weight was 231 lbs. […] We tested for rT3 at this point. Their labs on the 150 mg dose of desiccated thyroid were: rT3 394 pg/mL (nl 90-350), FT3 3.94 pg/mL (nl 1.71-3.71), and FT4 1.24 ng/dL (nl 0.7-1.48). The task of bringing down their rT3 was then addressed. Over a period of a few months, their desiccated thyroid hormone was discontinued and instead the patient was given gradually increasing doses of T3 only, starting at 20 mcg daily and gradually increasing the T3 to 60 mcg bid. Five months after starting on T3 with increasing doses, their weight had dropped to 209 lbs. Their BP was 118/66 mmHg with pulse of 74 on lisinopril 10 mg daily, metoprolol 50 mg bid, and furosemide 40 mg daily. Instead of glipizide, they were taking metformin 500 mg bid. […] Their most recent labs on 60 mcg bid of T3 were FT3 3.8 pg/mL (nl 1.71-3.71), FT4 0.64 ng/dL (nl 0.7-1.48) and rT3 137 pg/mL (nl 90-350). Four months prior to this visit their BS was 125 mg/dl.
The second patient example is a person, 5′2″, weight 150 lbs, BMI 28 (nl 18.5-24.9; overweight 25-29.9; obesity≧30), with HTN. Their blood pressure was slightly elevated at 148/85 (on lisinopril 5 mg daily). Their medical problems at baseline included history of Hashimoto's thyroiditis, borderline high TSH, elevated lipids, and HTN. Their medications were lisinopril 5 mg daily, estradiol 2 mg daily, and rofecoxib 25 mg daily for osteoarthritis of their large joints. […]

The nature of assay [4]: Existing thyroid therapy in subjects undergoing a weight loss regimen (general finding). Format: in vivo. The following applies: T4 alone or T3:T4 at ratios of less than 1:2. An excerpt:
Such T4 based therapy often serves to increase levels of rT3 and decreases levels of circulating T3, thereby undermining attempts to counter hypothyroidism and effect continued weight loss.

The subject of assay [5] is thyroid hormone receptors. The following applies: cited from earlier work.

`N[C@@H](Cc1cc(I)c(Oc2ccc(O)cc2)c(I)c1)C(=O)O` [T2, 3,5-diiodo-1-thyronine]: the reported symptoms result in assay [1] (Patient Example 3, T2 2 mcg SR q AM added, T3 25 mcg b.i.d., 10 days after start of T2) is “surfaces of their body were now warm and not numb, and that their skin and hair had improved”; in assay [1] (Patient Example 4, T2 2 mcg q AM and 8-10 hours later added, T3 reduced to 50 mcg twice daily, nearly two months), “no complaints of fatigue and reported that only a slight coldness persisted”. The energy levels entry in assay [1] (Patient Example 3, T2 2 mcg SR q AM added, T3 decreased to 25 mcg b.i.d., two days later) is given as “energy levels were normalized”. The low thyroid symptoms result in assay [1] (Patient Example 3, over six weeks after starting the T2 regimen) is reported as “not suffering from any symptoms of low thyroid”. The same molecule registered an FT4 in assay [2] (Patient Example 3, T2 2 mcg SR q AM added, T3 25 mcg b.i.d., normal range 0.93-1.7) of 0.23 ng/dL. Further, the FT3 in assay [2] (Patient Example 3, T2 2 mcg SR q AM added, T3 25 mcg b.i.d., normal range 2.2-4.0) is 3.2 pg/mL; in assay [2] (Patient Example 4, T2 2 mcg twice daily added, T3 50 mcg twice daily, normal range 2.2-4.0), 2.7 pg/mL. Also, the rT3 in assay [2] (Patient Example 3, T2 2 mcg SR q AM added, T3 25 mcg b.i.d., normal range 90-350) was 69 pg/mL.

For `N[C@@H](Cc1cc(I)c(Oc2cc(I)c(O)c(I)c2)c(I)c1)C(=O)O` [T4, (2S)-2-amino-3-[4-(4-hydroxy-3,5-diiododophenoxy)-3,5-diiodophenyl]propanoic acid], the low thyroid symptoms entry in assay [3] is “began to feel tired, cold, and depressed and developed constipation and hair loss”. The same molecule registered a TSH in assay [2] (Patient Example 2, 75 mcg daily) of 0.91 uIU/mL. In assay [2] (Patient Example 2, 75 mcg daily, nl 0.93-1.70), this molecule showed an FT4 of 1.07 ng/dL. The FT3 in assay [2] (Patient Example 2, 75 mcg daily, nl 2.2-4.0) amounted to 2.3 pg/mL. For the same molecule, the “correction of thyroid abnormalities and/or hypothyroidism so as to permit continuing weight loss” value in assay [4] was “fails to correct thyroid abnormalities and/or hypothyroidism”.

In the case of `N[C@@H](Cc1ccc(Oc2cc(I)c(O)c(I)c2)c(I)c1)C(=O)O` [rT3, reverse triiodothyronine], the “action on thyroid hormone receptors” value in assay [5] is on record as “does not stimulate thyroid hormone receptors but instead binds to these receptors”.
